Test results taken from PubChem BioAssay (NCI).
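Grown in 96-well plates, cells were treated for 48 hours with each compound at five concentrations. Insufficient inhibition: endpoint recorded as highest concentration tested. GI50 marks 50% less growth. TGI is the concentration that stops growth completely.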

Key:
Assay in all cases: NCI tumour cell line growth inhibition, 48 h
786-0 renal = system: 786-0 renal
ACHN renal = system: ACHN renal
CAKI-1 renal = system: CAKI-1 renal
CCRF-CEM leukemia = system: CCRF-CEM leukemia
HCT-15 colon = system: HCT-15 colon
K-562 leukemia = system: K-562 leukemia
M14 melanoma = system: M14 melanoma
MOLT-4 leukemia = system: MOLT-4 leukemia
NCI-H23 lung = system: NCI-H23 lung
OVCAR-3 ovarian = system: OVCAR-3 ovarian

SMILES | GI50 (786-0 renal) | TGI (786-0 renal) | GI50 (ACHN renal) | TGI (ACHN renal) | GI50 (CAKI-1 renal) | TGI (CAKI-1 renal) | GI50 (CCRF-CEM leukemia) | TGI (CCRF-CEM leukemia) | GI50 (HCT-15 colon) | TGI (HCT-15 colon) | GI50 (K-562 leukemia) | TGI (K-562 leukemia) | GI50 (M14 melanoma) | TGI (M14 melanoma) | GI50 (MOLT-4 leukemia) | TGI (MOLT-4 leukemia) | GI50 (NCI-H23 lung) | TGI (NCI-H23 lung) | GI50 (OVCAR-3 ovarian) | TGI (OVCAR-3 ovarian)
COc1cc(C#Cc2ccc(=O)oc2C#Cc2ccccc2)cc(OC)c1OC | 3.39 µM | 12.2 µM | 2.13 µM | 4.23 µM | 2.12 µM | 4.26 µM | 4.02 µM | > 100 µM | 2.31 µM | 5.1 µM | 3.67 µM | > 40.4 µM | 2.38 µM | 5.98 µM | 3.43 µM | > 45.1 µM | 2.59 µM | 7.63 µM | 1.93 µM | 3.58 µM
Clc1nc(Cl)c2ncn(Cc3cccc(Cn4cnc5c(Cl)nc(Cl)nc54)c3)c2n1 | 12.3 µM | 26.6 µM | 2.53 µM | 6.21 µM | 12 µM | 26.3 µM | 2.25 µM | 5.32 µM | 5.78 µM | 22.3 µM | 3.11 µM | 17.1 µM | 2.77 µM | 7.65 µM | 3.48 µM | 13.7 µM | 8.5 µM | 22.1 µM | 2.38 µM | 7.22 µM
COC(=O)CCc1c[nH]c2ccc(N(CCCl)CCCl)cc12 | 0.856 µM | > 20.7 µM | 0.383 µM |  | 0.375 µM | > 28.4 µM | 0.6 µM | > 28.6 µM | 3.16 µM | > 59.3 µM | 9.68 µM | > 100 µM | 1.73 µM | 11.5 µM | 0.826 µM | > 100 µM | 1.25 µM | 39.7 µM | 8.05 µM | 49.6 µM
[Cl-].[O-]/N=C(\c1ccccc1)c1ccccn1.[O-]/N=C(\c1ccccc1)c1ccccn1.[O-]/N=C(\c1ccccc1)c1ccccn1.[Sm+3] | 24.1 µM | 65.5 µM | 29.3 µM | > 100 µM | 27.1 µM | 89.5 µM | 26.6 µM | 98.8 µM | 32.4 µM | > 100 µM | 32.6 µM | > 100 µM | 19.6 µM | 40.6 µM | 29.1 µM | > 100 µM | 32.8 µM | 87.1 µM | 18 µM | 73.7 µM
[Cl][Hg][Cl] | 12.6 µM | 25.1 µM | 18 µM | 32 µM | 13.7 µM | 18.1 µM | 1.83 µM | 7.38 µM | 15.8 µM | 30.1 µM | 0.302 µM | 4.33 µM | 16.2 µM | 32.2 µM | 4.08 µM | > 37.7 µM | 17.2 µM | 40.5 µM | 15.9 µM | 32.1 µM
Cc1cc2c(ccc3c(C)cc(=O)oc32)o1 |  | > 100 µM |  | > 100 µM |  | > 100 µM |  | > 100 µM |  | > 100 µM |  | > 100 µM |  | > 100 µM |  | > 100 µM |  | > 100 µM |  | > 100 µM
CO[C@H]1/C=C/O[C@@]2(C)Oc3c(C)c(O)c4c(c3C2=O)C(=O)C(/C=N/N(c2ccccc2)c2ccccc2)=C(NC(=O)/C(C)=C\C=C\[C@H](C)[C@H](O)[C@@H](C)[C@@H](O)[C@@H](C)[C@H](OC(C)=O)[C@@H]1C)C4=O | 1.83 µM | 3.44 µM | 1.74 µM | 3.28 µM | 1.72 µM | 3.38 µM | 1.83 µM | 4.84 µM | 1.63 µM | 3.4 µM | 2.69 µM | 9.36 µM | 1.79 µM | 3.49 µM | 1.85 µM | 6.07 µM | 2.44 µM | 5.1 µM | 1.84 µM | 3.34 µM
C=C1C(=O)O[C@@H]2C[C@@H](C)[C@@H]3C=CC(=O)[C@@]3(C)[C@@H](OC(=O)CC(=O)O[C@H]3[C@@H]4C(=C)C(=O)O[C@@H]4C[C@@H](C)[C@@H]4C=CC(=O)[C@]43C)[C@H]12 |  | 0.0355 µM |  | 0.189 µM |  | 0.111 µM |  | 0.0376 µM |  | 0.0773 µM |  | < 0.0322 µM |  | 0.0845 µM |  | < 0.0304 µM |  | 0.123 µM |  | 0.159 µM
O=C(CP(=O)(O)O)NC(CC(=O)OCc1ccccc1)C(=O)OCc1ccccc1 (centres undefined) |  | > 100 µM |  | > 100 µM |  | > 100 µM |  | > 100 µM |  | > 100 µM |  | > 100 µM |  | > 100 µM |  | > 100 µM |  | > 100 µM |  | > 100 µM
COc1cc(/C=C2\C(=O)Nc3cc(C)c(O)cc32)cc(OC)c1OC | 10.4 µM | 23.5 µM | 8.27 µM | 24.6 µM | 2.98 µM | 9.66 µM | 2.89 µM | 18.3 µM | 2.84 µM | 14.5 µM | 1.67 µM | 10.4 µM | 4.45 µM | 17.3 µM | 3.32 µM | 16.7 µM | 3.61 µM | 23.7 µM | 3.62 µM | 12.8 µM
